# Source: publication PMC2939254 (Neuroscience, 2010)
# Read-outs that look alike come from different tables or passages of the source.
# Key:
# [1] = tested on: NR1b/NR2A NMDAR expressed in HEK293 cells; format: cell-based, rat; conditions: pH 7.35
# [2] = tested on: NR1a/NR2B NMDAR expressed in HEK293 cells; format: cell-based, rat; conditions: pH 7.35
# [3] = tested on: NR1a/NR2A NMDAR expressed in HEK293 cells; format: cell-based, rat; conditions: pH 7.35
# [4] = tested on: NR1b/NR2B NMDAR expressed in HEK293 cells; format: cell-based, rat; conditions: pH 7.35
# [5] = tested on: NR2A-containing NMDAR complexes; format: cell-based, rat
# [6] = tested on: NR2B-containing NMDAR; format: cell-based, rat
# [7] = tested on: NR1b/NR2B NMDAR expressed in HEK293 cells; conditions: cited from earlier work
# [8] = tested on: NR1a/NR2A NMDAR expressed in HEK293 cells; conditions: cited from earlier work
# [9] = tested on: NR1a/NR2B NMDAR expressed in HEK293 cells; conditions: cited from earlier work
# [10] = tested on: NR1b/NR2A NMDAR expressed in HEK293 cells; conditions: cited from earlier work
Substance,"% maximal inhibition, 1b/2A [1] [%]","% maximal inhibition, 1a/2B [2] [%]","% maximal inhibition, 1a/2A [3] [%]","% maximal inhibition, 1b/2B [4] [%]",inhibition of NR2A-containing NMDAR complexes [5],maximal inhibition of NR2B-containing NMDAR [6] [%],"% maximal inhibition, 1b/2B [7] [%]","% maximal inhibition, 1a/2A [8] [%]","% maximal inhibition, 1a/2B [9] [%]","% maximal inhibition, 1b/2A [10] [%]"
GEγγLAKNA AγLARγNI(NH2) [con-R′ [V5L/ΔA10]],0,69 ± 4,0,71 ± 3,,,,,,
GEγγLQANQγLIRγKSN(NH2) [con-G[γ7A]],0,90 ± 4,0,95 ± 3,,,,,,
GEγγLQKMLγNLRγAEVKKNA(NH2) [con-T[Y5L]],86 ± 7,85 ± 3,80 ± 6,90 ± 6,,,,,,
GEγγLQKNQγLIRγKSN(NH2) [con-G[γ7K]],0,82 ± 5,0,94 ±2,,,,,,
GEγγLQγNQγNLRγAEVKKNA(NH2) [con-G/T],0,80 ± 5,0,86 ± 4,no inhibition,> 80,,,,
GEγγVAAMAAγLARγNI(NH2) [con-R′ [K7A]],93 ± 4,91 ± 3,93 ± 3,95 ± 2,,,,,,
GEγγVAKAAAγLARγNI(NH2) [con-R′ [M8A]],0,85 ± 3,0,88 ± 4,,,,,,
GEγγVAKMA AγLARγNI(NH2) [con-R′ [ΔA10]],0,55 ± 6,0,65 ± 5,,,,,,
GEγγVAKNAAγLARγNI(NH2) [con-R′ [M8N]],60 ± 7,53 ± 5,45 ± 6,66 ± 5,,,,,,
GEγγVQKMAAγLARγNI(NH2) [con-R′ [A6Q]],72 ± 6,84 ± 5,50 ± 7,90 ± 4,,,,,,
GEγγVQKMQAγLARγNI(NH2) [con-R′ [A6Q/A9Q]],25 ± 5,70 ± 6,0,79 ± 5,,,,,,
GEγγYAKNA AγLARγNI(NH2) [con-R′ [V5Y/ΔA10]],84 ± 4,87 ± 5,82 ± 6,90 ± 3,,,,,,
GEγγYQAMLγNLRγAEVKKNA(NH2) [con-T[K7A]],91 ± 3,85 ± 5,93 ± 2,94 ± 2,,,,,,
GEγγYQKALAγNLRγAEVKKNA(NH2) [con-T[M8A/+A10]],0,63 ± 4,0,67 ± 5,,,,,,
GEγγYQKALγNLRγAEVKKNA(NH2) [con-T[M8A]],,,,,,,81 ± 5,0,73 ± 8,0
GEγγYQKGLγNLRγAEVKKNA(NH2) [con-T[M8G]],0,80 ± 5,0,84 ± 4,,,,,,
GEγγYQKMAγNLRγAEVKKNA(NH2) [con-T[L9A]],91 ± 3,92 ± 5,93 ± 2,95 ± 2,,,,,,
GEγγYQKNLγNLRγAEVKKNA(NH2) [con-T[M8N]],,,,,,,90 ± 4,48 ± 6,82 ± 5,56 ± 7
GEγγYQγMLγNLRγAEVKKNA(NH2) [con-T[K7γ]],82 ± 6,86 ± 5,78 ± 4,90 ± 2,,,,,,
